# Measured values as given in US7767642B2, “Therapeutic peptides for the treatment of metastatic cancer” (Arizona Biomedical Research Commission, priority 2005, dated 2010).
# Values joined by “and” are separate entries in the source; they are usually repeats but may differ in a detail not shown here. Equal entries are not always repeated. Where no end group is shown, it is not given here. TAT = Protein Transduction Domain of the HIV protein TAT (trans-activating transcriptional activator protein), a cell-penetrating sequence
# Assays:
# [1] = system: MDA-MB-468 breast cancer cells; test: Transwell collagen gel invasion assay, peptides delivered with Bioporter; format: cell-based
# Experimental: FIG. 1. […] A collagen gel matrix was poured onto the bottom of 8 uM pore sized-transwell inserts (modified Boyden's chamber), then inverted into 20% FBS. Cells were incubated with 100 ng/ml of peptide (with Bioporter reagent to allow for cellular uptake), then added to the top of the Transwell. Cells (serum-free) were allowed to invade into the gel, the gel was removed and invading cells enumerated.
# (§1) Peptide treatment and invasion assay: 8 um pore size Transwell inserts (Corning) will be inverted and coated with 90 ul of Type I collagen (rat tail, BD Scientific) gel mixture (2.2% sodium bicarbonate, 10× M199 media), and allowed to solidify for 30 minutes. Wells are then be inverted into DMEM with 20% fetal calf serum and allowed to rehydrate. Peptides are incubated with BioPORTER reagent (Sigma, St. Louis Mo.) for 5 minutes to promote cellular uptake, vortexed, and added to cells in serum-free media (10 ng/ml, 100 ng/ml and […] concentrations will be tested) and placed in the upper chamber of the Transwell. Cells will then be incubated for 2, 4 or 24 hours. Media is removed and gels fixed with 4% paraformaldehyde for 30 minutes and transferred to PBS, pH 7.4. Collagen gels will then either be stained with bizbenzamide for 40 minutes and all cells invaded into a gel enumerated or used in immunofluorescence assays. Invasion of peptide-treated cells are compared to PBS/bioporter treated controls or irrelevant peptide treatment.
# To investigate the functional significance of MUC1 expression on breast cancer invasion, we have incubated invasive breast cancer cell lines with MUC1-mimetic peptides designed to the β-catenin interacting domain. We then monitored the effects of peptide treatment on invasion through a filter and into a collagen gel.
# We performed initial experiments with these β-catenin-binding site (M2) peptides in MDA-MB-468 cells. […] We observed less than 15 M2 peptide-treated cells invaded into a collagen matrix in a 4 hour period, compared to approximately 125 cells in PBS controls.
# [2] = system: MDA-MB-231 and MDA-MB-468 invasive breast cancer cell lines; test: Invasion assay with TAT-conjugated MUC1-mimetic peptides, cell line not given; format: cell-based; details: TAT-conjugated peptide
# Experimental: as §1
# We have designed TAT-conjugated MUC1-mimetic peptides for their ability to inhibit the invasion of MDA-MB-231 and MDA-MB-468 invasive breast cancer cell lines.
# Peptides were designed to carry the TAT transduction domain for entry into cells. The following peptides were designed, produced and tested: […]
# [3] = system: MDA-MB-231 breast cancer cells; test: Invasion assay with TAT-conjugated MUC1-mimetic peptides; format: cell-based; details: MDA-MB-231, compared to control TAT peptide
# Experimental: FIG. 4. Treatment of MDA-MB-231 cells with MEBTAT leads to a 5-fold decrease in cell invasiveness as compared to control TAT peptide in invasion assays.
# as §1
# We have designed TAT-conjugated MUC1-mimetic peptides for their ability to inhibit the invasion of MDA-MB-231 and MDA-MB-468 invasive breast cancer cell lines. […]
# β-catenin = target: T1, β-catenin (Homo sapiens, UniProt P35222); test: β-catenin localization after peptide treatment; format: cell-based; details: MDA-MB-231 cells treated with peptide
# T1 construct: endogenous in cells; host or cells: MDA-MB-231 breast cancer cells
# T1 sequence (P35222 1-781): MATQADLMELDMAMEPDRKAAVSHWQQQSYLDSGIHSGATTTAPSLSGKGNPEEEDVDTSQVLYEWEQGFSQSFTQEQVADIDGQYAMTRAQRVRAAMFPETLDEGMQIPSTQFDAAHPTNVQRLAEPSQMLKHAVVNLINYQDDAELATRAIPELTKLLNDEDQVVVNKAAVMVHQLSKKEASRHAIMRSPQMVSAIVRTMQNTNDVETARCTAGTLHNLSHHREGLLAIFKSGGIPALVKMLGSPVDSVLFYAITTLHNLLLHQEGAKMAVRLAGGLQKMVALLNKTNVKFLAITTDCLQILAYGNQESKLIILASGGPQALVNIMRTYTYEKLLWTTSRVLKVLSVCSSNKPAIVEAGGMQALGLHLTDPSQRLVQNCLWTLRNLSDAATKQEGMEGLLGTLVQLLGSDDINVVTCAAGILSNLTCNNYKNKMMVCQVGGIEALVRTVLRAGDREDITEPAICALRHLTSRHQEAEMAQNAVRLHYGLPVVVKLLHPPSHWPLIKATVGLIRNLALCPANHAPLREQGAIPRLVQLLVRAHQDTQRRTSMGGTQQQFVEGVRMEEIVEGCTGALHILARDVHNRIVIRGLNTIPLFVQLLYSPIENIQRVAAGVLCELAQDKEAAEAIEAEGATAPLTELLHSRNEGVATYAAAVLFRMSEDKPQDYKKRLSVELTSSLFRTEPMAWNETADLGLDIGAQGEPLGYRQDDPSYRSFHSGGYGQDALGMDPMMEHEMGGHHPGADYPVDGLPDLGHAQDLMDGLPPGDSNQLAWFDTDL
# Experimental: Immunofluorescence: Cells undergoing invasion through collagen gels are immunofluorescently labeled in situ (while in the collagen gel). For immunofluorescence on collagen gels, gels are permeabilized with 0.5% Triton X-100 in 10 mM Pipes (pH 6.8), 50 mM NaCl, 300 mM sucrose and 3 mM MgCl2 for 5 minutes at room temperature. Gels are blocked with 3% BSA (Sigma), 0.05% Tween 20, in a 1:1 solution of PBS and Enhancing Wash Buffer (Innovex). Primary antibodies are incubated overnight at 4° C., and gels washed for 6 hours in 1:1 PBS: Enhancing Wash Buffer. Secondary antibodies are incubated overnight at 4° C., and washed again for 6 hours at room temperature. Gels are then mounted, coverslipped and analyzed using a Zeiss laser scanning confocal microscope. The following antibodies are used: anti-biotin (streptavidin-Alexa594, 1:500, Molecular Probes), anti-Muc1 (1:100, Santa Cruz), anti-vinculin (V9131, 1:400, Sigma Chemical Company) anti-β-catenin (H-102, 1:100, Santa Cruz Biochemical), anti-fascin (FCN01, 1:50, Neomarkers), and phalloidin-Alexa546 (1:100, Molecular Probes). Secondary antibodies can be either Alexa 488 or 546 from Molecular Probes.
# MDA-MB-231 cell line [4] = test: Scid xenograft model Trial 1, i.p. treatment; format: in vivo; details: for animals with tumor regression / tumor regression in the regressing animal: once daily MWF
# Experimental: Trial 1. The MDA-MB-231 cell line was injected (in matrigel) into the mammary fat pad of 24 mice. These mice were then divided into 3 groups and injected once daily, MWF, for 2 weeks.
# Group IA was treated (i.p.) with 10 ug/g body weight MEBTAT peptide
# Group IB was treated (i.p.) with 20 ug/g body weight MEBTAT peptide
# Group IC was treated (i.p.) with 20 ug/g body weight TAT peptide
# At the end of 2 weeks, we had 27% tumor regression in 1/7 animals in group IA, 7% tumor regression in 1/7 animals in group IB, and no tumor regression (0/7) in group IC.
# All tumors were surgically resected 3 days after final drugging, and the mice were monitored for an additional 10 days. […] This correlates to a 25% increase in overall survival time for the animals taking 20 ug/g body weight of MEBTAT compared to TAT.
# MDA-MB-231 cell line [5] = test: Scid xenograft model Trial II, i.v. treatment; format: in vivo; details: 20 ug/g body weight i.v.
# Experimental: Trial II: The MDA-MB-231 cell line was injected (in matrigel) into the mammary fat pad of 16 mice. These mice were then divided into 2 groups and injected once daily, MTWThF, for 2 weeks.
# Group IIA was treated (i.v.) with 20 ug/g body weight MEBTAT peptide
# Group IIB was treated (i.v.) with 20 ug/g body weight TAT peptide
# All animals were sacrificed and analyzed for metastases.
# MDA-MB-231 cells = test: 96-well invasion assay of MEBTAT and alanine-scanning mutants; format: cell-based; details: 96-well format, 1 hour treatment, 18 hours invasion
# Experimental: The amino acids of the MEB sequence [PYEKVSAGNGGSSLS; SEQ ID NO: 1] were replaced, one amino acid at a time, with alanine. (Note that there are only […] mutants, as one of the parental amino acid residues. was already an alanine). Note also that this experiment was done one time, with 4 replicas at each data point.
# A new assay was performed in a 96-well format. While the suppression of invasion is not as robust as that observed in the 24-well format, we still observe a 3-fold suppression of invasion with MEBTAT treatment over TAT or PBS. […] Altering any of the remaining amino acids completely eliminated the effect, indicating a critical role for both the YEKV (EGFR/src binding site) and the SAGNGGSSLS (beta-catenin binding site). Also important is the P (at residue #1) that links MEB to the TAT. The proline could be providing important access of the peptide to MUC1 binding sites.
# MDA-MB-231 cells were treated for 1 hour with MEBTAT (M), TAT (T), PBS (P), or alanine scanning mutants of MEBTAT. Cells were treated with Calcein-AM and allowed to invade across an 8-uM Transwell into a Type I collagen gel for 18 hours. Invasion was analyzed by spectrophotometry.
# [6] = 10 ug/g body weight i.p., end of 2 weeks
# [7] = 20 ug/g body weight i.p., end of 2 weeks
substance,measurement,setting,value
"M2: MUC1-β-catenin binding domain mimetic peptide, SEQ ID NO: 7 (SAGNGGSSLSY; listed as Homo sapiens)",cells invaded into a collagen matrix,"[1]; 4 hour period, approximately 125 cells in PBS controls",less than 15 cells
same,inhibition of invasion into a collagen matrix,"[1]; MDA-MB-468, 100 ng/ml peptide with Bioporter, vs PBS controls",approximately 8 fold
same,effect on invasion,"[1]; MDA-MB-468, compared to PBS treated controls",inhibits invasion
"TAT-SSTDRSPYEKVSAGNGGSSLSYTNP ({TAT}-SSTDRSPYEKVSAGNGGSSLSYTNP; listed as Homo sapiens) [MTAT1, used for positive controls, reference compound]",increase of invasion,[2],18 fold
TAT-PYEKVSAGNGGSSLS ({TAT}-PYEKVSAGNGGSSLS; listed as Homo sapiens) [MEBTAT],decrease in cell invasiveness / block of invasion,[3],5 fold and 6 fold
same,β-catenin localization,β-catenin,β-catenin localization at sites of focal adhesion and lamellapodia
same,animals with tumor regression,MDA-MB-231 cell line [4]; [6],1/7
same,tumor regression in the regressing animal,MDA-MB-231 cell line [4]; [6],27%
same,increase in overall survival time compared to TAT,MDA-MB-231 cell line [4]; 20 ug/g body weight i.p.,25%
same,animals with tumor regression,MDA-MB-231 cell line [4]; [7],1/7
same,tumor regression in the regressing animal,MDA-MB-231 cell line [4]; [7],7%
same,toxicity of the peptide treatment,"MDA-MB-231 cell line [4]; 10 and 20 ug/g body weight i.p., 2 weeks",no detectable toxicity
same,tumor regrowth after surgical resection,"MDA-MB-231 cell line [4]; all 3 groups, monitored 10 days after resection",no statistically significant difference in growth rates
same,decrease in tumor volume compared to TAT,"MDA-MB-231 cell line [4]; all treatment groups, i.p., end of 2 weeks",20%
same,toxicity,MDA-MB-231 cell line [5]; 2 weeks,no detectable toxicity
same,tumor volume reduction in regressing animals,"MDA-MB-231 cell line [5]; end of 2 weeks, individual mice",7% and 9% and 21%
same,animals with tumor regression,"MDA-MB-231 cell line [5]; once daily MTWThF, end of 2 weeks",3/8
same,visible metastases in diaphragms (animals),MDA-MB-231 cell line [5]; sacrifice at 2 weeks,4/8
same,visible metastases in livers (animals),MDA-MB-231 cell line [5]; sacrifice at 2 weeks,1/8
same,visible metastases in lungs (animals),MDA-MB-231 cell line [5]; sacrifice at 2 weeks,0/8
same,suppression of invasion over TAT or PBS,MDA-MB-231 cells,3 fold
TAT-SAGNGGSSLS ({TAT}-SAGNGGSSLS; listed as Homo sapiens) [MBTAT],suppression of invasion,[2],8 fold
